In patent US20160192643A1, “NEW ANTIFUNGAL COMPOSITION FOR TREATMENT OF SOIL” (CERADIS B.V., priority 2013, published 2016):

Columns and labels:
Agaricus bisporus = test: Polyelectrolyte formulation applied on mushroom growth substrate: total yield of mushrooms; type: in vivo; conditions: natamycin 500 ppm where present
Description: Naturally contaminated Phase III compost inoculated with mushroom spawn of the edible mushroom species Agaricus bisporus prepared using well known methods was obtained from a local Dutch grower
Formulations described in Table 3 were generated as described in Example 1 for CitoCal.
Boxes with a size of 30 (1)×25 (b)×10 (h) cm were filled with the Phase III compost and incubated for 4 days at a temperature of 21° C. in the dark. After this incubation period, the white mushroom mycelium was visible on the surface of the compost. The compost was covered with 3 cm of casing prepared using well known methods after which 30 ml of the different formulations was sprayed onto the casing. Each formulation was examined in duplicate. The next day, 200 ml of water was added to each box after which the boxes were incubated for 7 days at 21° C. in the dark allowing the mycelium to grow to the surface of the casing. After this period the white mushroom mycelium was visible at the surface of the casing. The boxes were further incubated in the dark at a temperature of 18° C.
Dehydration of the casing surface was prevented by spraying sufficient and equal amounts of water (circa 10 ml) onto the casing in each box every few days using well known methods. […] During a period of 46 days mushrooms were harvested every day; the total yield was determined by measuring the weight of the mushrooms.

[1] = neutral aqueous systems; cited from earlier work
most fungi = conditions: cited from earlier work
Pythium aphanidermatum = test: Polyelectrolyte formulation against Pythium aphanidermatum in Chrysanthemum soil
Description: Soil was artificially infected with Pythium aphanidermatum spores using well known methods. Crates of 40×60 cm each were filled with infected soil. Transplants of Chrysanthemum were planted after the artificial infection. Each plot consisted of 2 crates with each 15 plants (30 plants per plot). The trial was conducted in four replicates. A single application was done just after transplant by spraying the AllyloCal polyelectrolyte complex over the crop at 1000 l/ha. Immediately after the treatment, the products were rinsed in the soil with 3 liter of water per m^2. The applied concentration in the spray suspension was 1000 ppm of natamycin. After 10 days the numbers of healthy, diseased and dead plants were counted.
At the end of the trial, after 44 days, the average plant height, the average plant weight and the rooting (in percentage of the bottom of the crates covered with roots) were measured.

[2] = 10 days after infection, n = 120, single spray at 1000 l/ha, 1000 ppm natamycin
[3] = compared with the untreated plants (n = 120), after 44 days
[4] = end of the trial, after 44 days

In the case of C[C@@H]1C/C=C/C=C/C=C/C=C/[C@H](O[C@@H]2O[C@H](C)[C@@H](O)[C@H](N)[C@@H]2O)C[C@@H]2O[C@](O)(C[C@@H](O)C[C@H]3O[C@@H]3/C=C/C(=O)O1)C[C@H](O)[C@H]2C(=O)O [Natamycin, natamycin], the “Total yield (gram/2 boxes)” value (Agaricus bisporus; total mushroom weight after 46 days of incubation, 30 ml formulation sprayed onto casing, naturally contaminated Phase III compost) is listed as 359 gram/2 boxes, the “Yield increase (%)” value (Agaricus bisporus; versus Control, 46 days of incubation) is listed as −1.4% and the solubility [1] is listed as 30-40 ppm. The “Minimal Inhibitory Concentration (MIC)” value (most fungi) was “less than 10 ppm”, the “Dead plants (%)” value (Pythium aphanidermatum; [2]) was 6% and the “Diseased plants (%)” value (Pythium aphanidermatum; [2]) was 34%. For the same compound, the “Healthy plants (%)” value (Pythium aphanidermatum; [2]) was 60%, the “Percentage improvement of plant height (%)” value (Pythium aphanidermatum; [3]) was 5.5% and the “Percentage improvement of plant rooting (%)” value (Pythium aphanidermatum; [3]) was 2.3%. For the same compound, the “Percentage improvement of plant weight (%)” value (Pythium aphanidermatum; [3]) was 3.9%, the average plant height (Pythium aphanidermatum; [4]) was 59.9 cm and the average plant weight (Pythium aphanidermatum; [4]) was 43.1 grams.
